The conditions of data set [1]: cited from earlier work.
Data set [2] is described as follows: Degradation of Drotaverine HCl under stress conditions. In kind it is physicochemical. To be noted: alkaline medium, higher oxidative stress conditions, presence of light. The text has this:
In some embodiments, the disclosed formulations employ very few excipients, all of which are completely safe for pediatric patients, economical, and readily available.

A short description of data set [3]: Solubilizing Drotaverine HCl in dispersion media of sorbitol liquid, glycerin and water, storage. In kind it is physicochemical. To be noted: glycerin, water 1:1:1 to 3:2:1, no stabilizing agent. An excerpt:
The inventors of the present disclosure tried solubilizing Drotaverine HCl in a ratio of dispersion media containing sorbitol liquid, glycerin, and water ranging from 1:1:1 to 3:2:1, respectively. […] To obtain a physically and chemically stable product with good shelf life, the present inventors resolved this precipitation of Drotaverine in the proposed dispersion media. In order to avoid the precipitation of Drotaverine, the present inventors added a stabilizing agent to the dispersion media.

For data set [4] the following is noted: cited from earlier work. This is another data set of the same source.

SMILES strings stand for the structures.

As for `CCOc1ccc(C=C2NCCc3cc(OCC)c(OCC)cc32)cc1OCC` [Drotaverine, 1-[(3,4-diethoxyphenyl)methylene]-6,7-diethoxy-1,2,3,4-tetrahydroisoquinoline], in data set [1], the “oral LD50” value is more than 1000 mg/Kg body weight. The degradation entry in data set [2] is reported as “degrades extensively”. Further, the precipitation on storage entry in data set [3] was “re-precipitated on storage”. In addition, the onset of action in data set [4] (after oral administration of 80 mg strength IR tablets) was not above 12 min. In addition, in data set [4] (humans, Drotaverine IR tablets 80 mg), the “renal clearance as share of the total plasma clearance” value was 0.31+/−0.13%. For the same compound, in data set [4] (humans, oral, subject dependent), the “Absolute bioavailability (range)” value is recorded as 24.5-91%. Further, the “Absolute bioavailability, mean (mean+/-SD)” value in data set [4] (humans, oral) is given as 58.2+/−18.2%.

The values above are taken from US20240091217A1, “STABLE PHARMACEUTICAL ORAL LIQUID FORMULATION OF AN ANTISPASMODIC AGENT” (priority 2022, published 2024).
